Results taken from the supplement of paper PMC11061612.

Columns and labels:
[1] = compound: C1CN(CCC1(C(=O)N[C@@H](CCO)C2=CC=C(C=C2)Cl)N)C3=NC=NC4=C3C=CN4 [Capivasertib]; conditions: max 10 µM
Outline: (§1)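 In 1536-well plates, cancer cell lines in 7.5 μl DMEM/F12 or RPMI with 10% FBS spent 24 hours at 37°C and 5% CO2 and were then dosed for 72 hours with final DMSO typically 0.2%. Viability was read by CellTiter-Glo 2.0 luminescence and scaled between blank-well and DMSO-well means. The single-agent IC50 was fitted from dose responses using a logistic curve in a non-linear mixed effects model, and that logistic curve had two parameters.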

[2] = compound: C=CCn1c(=O)c2cnc(Nc3ccc(N4CCN(C)CC4)cc3)nc2n1-c1cccc(C(C)(C)O)n1 [AZD1775]; conditions: max 3 µM
Outline: as §1

[3] = compound: CC(=O)Nc1cccc(-n2c(=O)n(C3CC3)c(=O)c3c(Nc4ccc(I)cc4F)n(C)c(=O)c(C)c32)c1 [Trametinib]; conditions: max 1 µM
Outline: as §1

[4] = compound: CC(=O)c1c(C)c2cnc(Nc3ccc(N4CCNCC4)cn3)nc2n(C2CCCC2)c1=O [Palbociclib]; conditions: max 10 µM
Outline: as §1

[5] = compound: CC(C)n1c(=O)n(C)c2cnc3cc(F)c(-c4ccc(OCCCN5CCCCC5)nc4)cc3c21 [AZD1390]; conditions: max 0.3 µM
Outline: as §1

[6] = compound: CC1(C)CCC(CN2CCN(c3ccc(C(=O)NS(=O)(=O)c4ccc(NCC5CCOCC5)c([N+](=O)[O-])c4)c(Oc4cnc5[nH]ccc5c4)c3)CC2)=C(c2ccc(Cl)cc2)C1 [Venetoclax]; conditions: max 1 µM
Outline: as §1

[7] = compound: CC1=C(C(=CC=C1)Cl)NC(=O)C2=CN=C(S2)NC3=CC(=NC(=N3)C)N4CCN(CC4)CCO [Dasatinib]; conditions: max 2 µM
Outline: as §1

[8] = compound: CC1=CN2[C@@H](C1)C=NC3=CC(=C(C=C3C2=O)OC)OCCCCCOC4=C(C=C5C(=C4)N=C[C@@H]6CC(=CN6C5=O)C)OC [SG3199]; conditions: max 0.001 µM
Outline: as §1

[9] = compound: CCN(CCO)CCCOc1ccc2c(Nc3cc(CC(=O)Nc4cccc(F)c4)[nH]n3)ncnc2c1 [AZD2811]; conditions: max 1 µM
Outline: as §1

[10] = compound: CCc1c2c(nc3ccc(O)cc13)-c1cc3c(c(=O)n1C2)COC(=O)[C@]3(O)CC [SN-38]; conditions: max 0.3 µM
Outline: as §1

[11] = compound: CN(C)CCCOc1ccc(-c2ccc3ncc4c(c3c2)n(C2CCOCC2)c(=O)n4C)cn1 [AZD0156]; conditions: max 3 µM
Outline: as §1

[12] = compound: CN(CC[C@H](CSC1=CC=CC=C1)NC2=C(C=C(C=C2)S(=O)(=O)NC(=O)C3=CC=C(C=C3)N4CCC(CC4)[C@H](C5=CC=CC=C5C6=CC=C(C=C6)Cl)O)S(=O)(=O)C(F)(F)F)CCO [AZD4320]; conditions: max 1 µM
Outline: as §1

[13] = compound: COc1cc(Nc2ncc3c(n2)-c2ccc(Cl)cc2C(c2c(F)cccc2OC)=NC3)ccc1C(=O)O [Alisertib]; conditions: max 10 µM
Outline: as §1

[14] = compound: COc1cc2ncnc(Nc3ccc(F)c(Cl)c3)c2cc1OCCCN1CCOCC1 [Gefitinib]; conditions: max 10 µM
Outline: as §1

[15] = compound: COc1cccc(OCCCN)c1-c1cc(Nc2cnc(C#N)cn2)n[nH]1 [Prexasertib]; conditions: max 1 µM
Outline: as §1

[16] = compound: COc1cccc2c1C(=O)c1c(O)c3c(c(O)c1C2=O)C[C@@](O)(C(=O)CO)C[C@@H]3O[C@H]1C[C@H](N)[C@H](O)[C@H](C)O1 [Doxorubicin]; conditions: max 1 µM
Outline: as §1

[17] = compound: COc1nnc2ccc(N3CCC(c4ccc(OCCN5CCN(C)C(=O)[C@H]5C)cc4)CC3)nn12 [AZD5153]; conditions: max 1 µM
Outline: as §1

[18] = compound: CS(=O)(=O)CCNCc1ccc(-c2ccc3ncnc(Nc4ccc(OCc5cccc(F)c5)c(Cl)c4)c3c2)o1 [Lapatinib]; conditions: max 10 µM
Outline: as §1

[19] = compound: C[C@@H](Nc1cc(F)cc(F)c1)c1cc(C(=O)N(C)C)cc2c(=O)cc(N3CCOCC3)oc12 [AZD8186]; conditions: max 3 µM
Outline: as §1

[20] = compound: C[C@@H](Oc1cc(-c2cnn(C3CCNCC3)c2)cnc1N)c1c(Cl)ccc(F)c1Cl [Crizotinib]; conditions: max 10 µM
Outline: as §1

[21] = compound: C[C@@H](c1ccc2nccn2c1)n1nnc2ncc(-c3cnn(C)c3)nc21 [Savolitinib]; conditions: max 1 µM
Outline: as §1

[22] = compound: C[C@@H]1COCCN1C2=NC(=NC(=C2)C3(CC3)[S@](=N)(=O)C)C4=C5C=CNC5=NC=C4 [AZD6738]; conditions: max 10 µM
Outline: as §1

[23] = compound: Cc1c2c(nn1C)CSCc1cc(n(C)n1)CSc1cc(c3ccccc3c1)OCCCc1c(C(=O)O)n(C)c3c-2c(Cl)ccc13 [AZD5991]; conditions: max 1 µM
Outline: as §1

[24] = compound: Cc1cc2ncnn2cc1Nc1ncc2c(n1)n(C1CCOCC1)c(=O)n2C [AZD7648]; conditions: max 10 µM
Outline: as §1

[25] = compound: Cc1nc(-c2cn3c(n2)-c2ccc(-c4cnn(C(C)(C)C(N)=O)c4)cc2OCC3)n(C(C)C)n1 [Taselisib]; conditions: max 10 µM
Outline: as §1

[26] = compound: Cn1cnc2c(F)c(Nc3ccc(Br)cc3Cl)c(C(=O)NOCCO)cc21 [Selumetinib]; conditions: max 10 µM
Outline: as §1

[27] = compound: O=C(c1cc(Cc2n[nH]c(=O)c3ccccc23)ccc1F)N1CCN(C(=O)C2CC2)CC1 [Olaparib]; conditions: max 10 µM
Outline: as §1

[28] = compound: NC1(c2ccc(-c3nc4ccn5c(=O)[nH]nc5c4cc3-c3ccccc3)cc2)CCC1 [MK-2206]; conditions: max 10 µM
Outline: as §1

| Cell Line | IC50, cell viability 72 h [1] [µM] | IC50, cell viability 72 h [2] [µM] | IC50, cell viability 72 h [3] [µM] | IC50, cell viability 72 h [4] [µM] | IC50, cell viability 72 h [5] [µM] | IC50, cell viability 72 h [6] [µM] | IC50, cell viability 72 h [7] [µM] | IC50, cell viability 72 h [8] [µM] | IC50, cell viability 72 h [9] [µM] | IC50, cell viability 72 h [10] [µM] | IC50, cell viability 72 h [11] [µM] | IC50, cell viability 72 h [12] [µM] | IC50, cell viability 72 h [13] [µM] | IC50, cell viability 72 h [14] [µM] | IC50, cell viability 72 h [15] [µM] | IC50, cell viability 72 h [16] [µM] | IC50, cell viability 72 h [17] [µM] | IC50, cell viability 72 h [18] [µM] | IC50, cell viability 72 h [19] [µM] | IC50, cell viability 72 h [20] [µM] | IC50, cell viability 72 h [21] [µM] | IC50, cell viability 72 h [22] [µM] | IC50, cell viability 72 h [23] [µM] | IC50, cell viability 72 h [24] [µM] | IC50, cell viability 72 h [25] [µM] | IC50, cell viability 72 h [26] [µM] | IC50, cell viability 72 h [27] [µM] | IC50, cell viability 72 h [28] [µM] |
| --- | --- | --- | --- | --- | --- | --- | --- | --- | --- | --- | --- | --- | --- | --- | --- | --- | --- | --- | --- | --- | --- | --- | --- | --- | --- | --- | --- | --- |
| EW-1 (Ewing's Sarcoma) | > 10 | 0.294 | > 1 | 5.21 | > 0.3 | > 1 | > 2 | > 0.001 | > 1 | 0.00454 | > 3 | 0.586 | 4.9 | > 10 | 0.0109 | 0.317 | 0.357 | > 10 | > 3 | 2.04 | > 1 | 2.48 | > 1 | > 10 | 0.64 | > 10 | 6.67 | – |
| G-401 (Other Solid Carcinomas) | 2.71 | 1.41 | 0.0842 | 0.833 | > 0.3 | > 1 | > 2 | > 0.001 | > 1 | 0.0589 | > 3 | > 1 | 1 | > 10 | 0.239 | 0.111 | 0.0483 | > 10 | > 3 | 5.41 | > 1 | > 10 | > 1 | > 10 | 0.336 | > 10 | > 10 | – |
| HCC1500 (Breast Carcinoma) | > 10 | 2.9 | > 1 | > 10 | > 0.3 | 0.291 | > 2 | > 0.001 | > 1 | 0.213 | > 3 | 0.0452 | > 10 | > 10 | > 1 | > 1 | > 1 | > 10 | > 3 | > 10 | > 1 | > 10 | > 1 | > 10 | > 10 | > 10 | > 10 | > 10 |
| HCC1937 (Breast Carcinoma) | > 10 | 0.643 | > 1 | > 10 | > 0.3 | > 1 | > 2 | > 0.001 | > 1 | > 0.3 | > 3 | > 1 | > 10 | > 10 | 0.318 | > 1 | > 1 | > 10 | > 3 | > 10 | > 1 | > 10 | > 1 | > 10 | 9.15 | > 10 | > 10 | > 10 |
| HCC2998 (Colorectal Carcinoma) | > 10 | 0.981 | 0.0141 | > 10 | > 0.3 | > 1 | > 2 | > 0.001 | > 1 | 0.144 | > 3 | 0.485 | > 10 | > 10 | 0.0188 | 0.389 | 0.314 | > 10 | > 3 | > 10 | > 1 | 3.12 | 0.259 | > 10 | 5.39 | 0.382 | > 10 | – |
| Hey (Ovarian Carcinoma) | > 10 | 1.2 | 0.0598 | > 10 | > 0.3 | > 1 | 0.45 | > 0.001 | > 1 | 0.032 | > 3 | > 1 | 1.24 | > 10 | 0.128 | 0.398 | 0.476 | > 10 | > 3 | > 10 | > 1 | 6.18 | > 1 | > 10 | 7.99 | 3.04 | > 10 | – |
| KOPN-8 (B-Lymphoblastic Leukemia) | 4.98 | 0.314 | 0.0369 | 2.62 | > 0.3 | 0.05 | > 2 | > 0.001 | 0.0377 | 0.0027 | > 3 | 0.011 | 0.0234 | > 10 | 0.0198 | 0.106 | 0.0285 | > 10 | > 3 | 2.77 | > 1 | 0.725 | 0.0434 | > 10 | > 10 | 6.21 | 6.85 | 8.59 |
| LC-1-sq (Squamous Cell Lung Carcinoma) | > 10 | 0.294 | > 1 | > 10 | > 0.3 | > 1 | > 2 | > 0.001 | > 1 | > 0.3 | > 3 | > 1 | > 10 | > 10 | 0.0164 | > 1 | 0.49 | > 10 | > 3 | > 10 | > 1 | 2.13 | > 1 | > 10 | > 10 | > 10 | > 10 | – |
| NCI-H650 (Lung Adenocarcinoma) | > 10 | 2.65 | > 1 | > 10 | > 0.3 | > 1 | > 2 | > 0.001 | > 1 | 0.1 | > 3 | > 1 | > 10 | > 10 | 0.283 | > 1 | > 1 | > 10 | > 3 | > 10 | > 1 | > 10 | > 1 | > 10 | > 10 | > 10 | > 10 | > 10 |
| NCI-H1092 (Small Cell Lung Carcinoma) | > 10 | 2.94 | > 1 | > 10 | > 0.3 | > 1 | > 2 | > 0.001 | > 1 | > 0.3 | > 3 | 0.152 | > 10 | > 10 | 0.144 | > 1 | > 1 | > 10 | > 3 | > 10 | > 1 | > 10 | 0.819 | > 10 | > 10 | > 10 | > 10 | > 10 |
| NCI-H1838 (Lung Adenocarcinoma) | > 10 | 2.44 | > 1 | > 10 | > 0.3 | > 1 | > 2 | > 0.001 | > 1 | > 0.3 | > 3 | > 1 | > 10 | > 10 | 0.212 | > 1 | > 1 | > 10 | > 3 | > 10 | > 1 | > 10 | > 1 | > 10 | 5.86 | > 10 | > 10 | > 10 |
| NCI-H2122 (Lung Adenocarcinoma) | 4.95 | 0.547 | 0.0138 | 1.91 | > 0.3 | > 1 | > 2 | > 0.001 | 0.347 | 0.0405 | > 3 | > 1 | 0.065 | 5.67 | 0.0291 | > 1 | 0.115 | 6.23 | > 3 | 1.92 | > 1 | 1.14 | > 1 | > 10 | 0.373 | 0.496 | > 10 | – |
| OACM5-1 (Esophageal Adenocarcinoma) | 1.99 | 2.55 | > 1 | 6.86 | > 0.3 | > 1 | > 2 | > 0.001 | > 1 | 0.0464 | > 3 | > 1 | 3.85 | > 10 | 0.134 | 0.615 | 0.391 | 8.07 | > 3 | 4.4 | > 1 | 9.88 | 0.0582 | > 10 | 0.418 | > 10 | > 10 | – |
